Assay results reported in ChEMBL document CHEMBL1201862, “PubChem BioAssay data set” (2004).
Activity calls are given as the source filed them.

Tests used:
[1] = target: T1, E3 ubiquitin-protein ligase XIAP (Homo sapiens, UniProt P98170); assay: small molecules displacing peptide from XIAP – biochemical, IAP family, fluorescence polarization (AID 1018); format: functional
[2] = target: T1, E3 ubiquitin-protein ligase XIAP; assay: Counter Screen using XIAP-Bir3 for Chemical Antagonists of Bir1/2 domains of IAP-family anti-apoptotic proteins. [Related pubchem assays (depositor defined):AID1018, AID1449, AID1514, AID1638, AID1749, AID1750, AID488957, AID488963]
[3] = target: Peroxisome proliferator-activated receptor gamma/Nuclear receptor coactivator 1 (Homo sapiens, UniProt P37231); assay: (§1) TR-FRET dose response biochemical High Throughput Screening assay for agonists of the steroid receptor coactivator 1 (SRC-1) recruitment by the peroxisome proliferator-activated receptor gamma (PPAR gamma): non-selective agonists. [Related pubchem assays (depositor defined):AID1300, AID1808, AID504735, AID631]; format: protein assay
Chain of Peroxisome proliferator-activated receptor gamma/Nuclear receptor coactivator 1 (P37231 whole entry): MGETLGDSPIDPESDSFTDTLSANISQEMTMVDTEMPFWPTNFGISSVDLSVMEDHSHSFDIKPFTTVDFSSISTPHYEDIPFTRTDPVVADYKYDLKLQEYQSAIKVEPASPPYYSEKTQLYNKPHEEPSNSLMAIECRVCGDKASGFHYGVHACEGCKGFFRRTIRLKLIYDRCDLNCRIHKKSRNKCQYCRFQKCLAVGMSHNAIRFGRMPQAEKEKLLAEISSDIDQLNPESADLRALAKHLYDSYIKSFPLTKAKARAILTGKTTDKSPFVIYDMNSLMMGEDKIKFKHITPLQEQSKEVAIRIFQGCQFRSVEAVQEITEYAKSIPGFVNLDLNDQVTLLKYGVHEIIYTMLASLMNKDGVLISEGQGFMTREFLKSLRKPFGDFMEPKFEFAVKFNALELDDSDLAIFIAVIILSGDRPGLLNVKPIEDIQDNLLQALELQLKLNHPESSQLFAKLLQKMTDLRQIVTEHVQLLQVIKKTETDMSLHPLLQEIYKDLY
Chain of Peroxisome proliferator-activated receptor gamma/Nuclear receptor coactivator 1 (Q15788 whole entry, further chain): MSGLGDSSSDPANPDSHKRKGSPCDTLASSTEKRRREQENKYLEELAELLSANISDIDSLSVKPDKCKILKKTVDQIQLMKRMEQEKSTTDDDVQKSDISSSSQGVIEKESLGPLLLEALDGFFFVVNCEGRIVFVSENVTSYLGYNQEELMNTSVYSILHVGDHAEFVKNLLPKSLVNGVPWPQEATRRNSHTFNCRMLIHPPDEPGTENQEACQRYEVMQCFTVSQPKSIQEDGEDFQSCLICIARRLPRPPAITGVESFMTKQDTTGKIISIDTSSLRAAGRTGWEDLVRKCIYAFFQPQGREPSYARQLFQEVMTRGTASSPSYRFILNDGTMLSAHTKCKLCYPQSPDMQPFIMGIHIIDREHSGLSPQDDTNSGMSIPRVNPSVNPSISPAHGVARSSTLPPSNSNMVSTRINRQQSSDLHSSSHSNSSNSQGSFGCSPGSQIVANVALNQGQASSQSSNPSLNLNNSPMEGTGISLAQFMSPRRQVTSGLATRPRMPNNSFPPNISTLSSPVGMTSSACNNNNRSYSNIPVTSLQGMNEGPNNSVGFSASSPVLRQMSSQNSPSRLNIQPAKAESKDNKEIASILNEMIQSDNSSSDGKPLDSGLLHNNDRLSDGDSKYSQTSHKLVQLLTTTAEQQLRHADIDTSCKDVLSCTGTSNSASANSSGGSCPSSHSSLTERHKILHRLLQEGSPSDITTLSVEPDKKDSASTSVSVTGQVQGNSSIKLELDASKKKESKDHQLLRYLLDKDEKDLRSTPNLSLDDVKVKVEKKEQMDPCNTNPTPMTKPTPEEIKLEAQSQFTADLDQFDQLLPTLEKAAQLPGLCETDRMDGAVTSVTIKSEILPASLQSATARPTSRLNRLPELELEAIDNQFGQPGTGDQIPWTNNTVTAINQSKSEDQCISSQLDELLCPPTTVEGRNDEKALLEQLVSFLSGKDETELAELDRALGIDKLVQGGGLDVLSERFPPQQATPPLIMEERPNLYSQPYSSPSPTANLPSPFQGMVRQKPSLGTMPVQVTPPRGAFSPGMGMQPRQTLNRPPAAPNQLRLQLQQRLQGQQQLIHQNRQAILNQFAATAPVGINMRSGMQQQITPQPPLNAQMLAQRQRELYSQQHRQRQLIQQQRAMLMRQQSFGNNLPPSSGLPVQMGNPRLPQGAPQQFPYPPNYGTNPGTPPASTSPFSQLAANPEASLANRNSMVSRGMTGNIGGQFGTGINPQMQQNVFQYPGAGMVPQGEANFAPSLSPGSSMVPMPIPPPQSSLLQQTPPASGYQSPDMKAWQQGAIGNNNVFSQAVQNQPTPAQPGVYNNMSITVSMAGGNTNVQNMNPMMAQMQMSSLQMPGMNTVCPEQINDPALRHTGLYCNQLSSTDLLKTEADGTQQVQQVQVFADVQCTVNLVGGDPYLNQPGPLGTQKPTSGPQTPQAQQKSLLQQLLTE

[4] = target: Peroxisome proliferator-activated receptor gamma/Nuclear receptor coactivator 3 (Homo sapiens, UniProt P37231); assay: as §1, with “3 (SRC-3)” for “1 (SRC-1)”, “assays: 1301 (Confirmation screen.), 1048 (Primary screen.)]” for “assays (depositor defined):AID1300, AID1808, AID504735, AID631]”; format: functional
Chain of Peroxisome proliferator-activated receptor gamma/Nuclear receptor coactivator 3 (P37231 whole entry): as the sequence (P37231 whole entry) above
Chain of Peroxisome proliferator-activated receptor gamma/Nuclear receptor coactivator 3 (Q9Y6Q9 whole entry, further chain): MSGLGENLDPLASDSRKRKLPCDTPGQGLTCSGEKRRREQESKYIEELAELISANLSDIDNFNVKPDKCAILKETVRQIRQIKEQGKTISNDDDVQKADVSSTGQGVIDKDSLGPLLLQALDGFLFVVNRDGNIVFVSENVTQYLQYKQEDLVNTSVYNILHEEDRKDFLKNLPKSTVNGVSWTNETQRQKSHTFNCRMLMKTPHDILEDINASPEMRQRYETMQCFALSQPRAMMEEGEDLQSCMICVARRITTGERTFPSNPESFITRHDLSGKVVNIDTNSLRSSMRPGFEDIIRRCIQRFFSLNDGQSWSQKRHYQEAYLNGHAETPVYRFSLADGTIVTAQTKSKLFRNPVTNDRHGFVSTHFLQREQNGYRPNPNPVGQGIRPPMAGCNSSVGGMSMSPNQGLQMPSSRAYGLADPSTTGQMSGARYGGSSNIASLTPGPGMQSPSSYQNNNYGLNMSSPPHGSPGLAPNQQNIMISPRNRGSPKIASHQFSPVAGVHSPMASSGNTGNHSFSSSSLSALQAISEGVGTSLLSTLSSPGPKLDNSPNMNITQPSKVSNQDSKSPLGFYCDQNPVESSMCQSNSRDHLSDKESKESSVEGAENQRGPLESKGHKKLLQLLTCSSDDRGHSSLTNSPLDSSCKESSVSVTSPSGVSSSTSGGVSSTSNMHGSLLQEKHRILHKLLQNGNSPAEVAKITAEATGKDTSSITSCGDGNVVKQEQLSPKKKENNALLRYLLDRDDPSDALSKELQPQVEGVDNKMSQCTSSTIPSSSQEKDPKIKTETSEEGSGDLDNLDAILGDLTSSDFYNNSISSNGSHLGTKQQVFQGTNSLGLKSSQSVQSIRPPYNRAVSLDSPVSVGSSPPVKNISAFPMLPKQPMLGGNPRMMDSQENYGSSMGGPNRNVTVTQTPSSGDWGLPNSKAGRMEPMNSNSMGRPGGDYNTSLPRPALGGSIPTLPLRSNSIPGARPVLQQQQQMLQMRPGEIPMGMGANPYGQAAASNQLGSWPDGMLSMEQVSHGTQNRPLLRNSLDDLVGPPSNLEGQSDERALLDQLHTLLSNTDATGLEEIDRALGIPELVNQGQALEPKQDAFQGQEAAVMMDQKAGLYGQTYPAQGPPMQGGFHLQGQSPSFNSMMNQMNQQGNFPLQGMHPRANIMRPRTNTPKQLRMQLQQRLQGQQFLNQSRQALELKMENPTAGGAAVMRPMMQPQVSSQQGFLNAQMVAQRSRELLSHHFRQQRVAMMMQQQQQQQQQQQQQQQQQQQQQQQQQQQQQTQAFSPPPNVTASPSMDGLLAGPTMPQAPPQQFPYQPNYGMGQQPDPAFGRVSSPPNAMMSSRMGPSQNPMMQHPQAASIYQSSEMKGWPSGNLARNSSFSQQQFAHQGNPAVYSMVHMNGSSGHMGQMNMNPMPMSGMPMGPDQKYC

[5] = target: Peroxisome proliferator-activated receptor gamma/Nuclear receptor coactivator 2 (Homo sapiens, UniProt P37231); assay: TR-FRET dose response biochemical High Throughput Screening assay for agonists of the steroid receptor coactivator 2 (SRC-2) recruitment by the peroxisome proliferator-activated receptor gamma (PPAR gamma): non-selective agonists. [Related pubchem assays: 1297, 1032 ]; format: functional
[6] = target: Mitogen-activated protein kinase 10 (Homo sapiens, UniProt P53779); assay: Dose response biochemical screening assay for inhibitors of c-Jun N-Terminal Kinase 3 (JNK3). [Related pubchem assays: 746 ]
Chain of Mitogen-activated protein kinase 10 (P53779 whole entry): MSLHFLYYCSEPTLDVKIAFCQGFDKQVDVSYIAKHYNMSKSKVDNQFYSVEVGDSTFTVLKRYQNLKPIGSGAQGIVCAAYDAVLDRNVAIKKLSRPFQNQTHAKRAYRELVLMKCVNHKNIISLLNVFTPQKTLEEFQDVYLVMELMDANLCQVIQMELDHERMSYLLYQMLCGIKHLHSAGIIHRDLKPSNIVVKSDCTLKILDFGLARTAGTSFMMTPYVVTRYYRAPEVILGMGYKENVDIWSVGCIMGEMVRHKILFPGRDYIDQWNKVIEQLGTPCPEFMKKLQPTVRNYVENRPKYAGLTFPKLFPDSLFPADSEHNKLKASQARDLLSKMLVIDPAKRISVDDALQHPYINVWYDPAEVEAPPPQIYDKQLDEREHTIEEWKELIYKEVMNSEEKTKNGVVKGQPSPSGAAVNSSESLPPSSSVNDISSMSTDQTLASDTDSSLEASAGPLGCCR

Cytochrome P450 2C19 = Cytochrome P450 2C19 (Homo sapiens, UniProt P33261); assay: Cytochrome panel assay with activity outcomes. Panel member name: p450-cyp2c19 Compounds with AC50 equal or less than 10 uM are considered active; format: functional; details: read-out: AC50
P388/ADR = assay: cells; format: functional; details: Mus musculus
P388 = assay: cells; format: functional; details: Mus musculus
SN12K1 = assay: cells; format: functional; details: Homo sapiens
Aminopeptidase N = target: T2, Aminopeptidase N (Plasmodium falciparum FcB1/Columbia, UniProt O96935); assay: malaria alanyl aminopeptidase activity blockers – biochemical, fluorogenic H-Leu-NHMec substrate, 1536-well (AID 1445); parameters: species or system Plasmodium falciparum 3D7, 3D7
T2 sequence (O96935 whole entry): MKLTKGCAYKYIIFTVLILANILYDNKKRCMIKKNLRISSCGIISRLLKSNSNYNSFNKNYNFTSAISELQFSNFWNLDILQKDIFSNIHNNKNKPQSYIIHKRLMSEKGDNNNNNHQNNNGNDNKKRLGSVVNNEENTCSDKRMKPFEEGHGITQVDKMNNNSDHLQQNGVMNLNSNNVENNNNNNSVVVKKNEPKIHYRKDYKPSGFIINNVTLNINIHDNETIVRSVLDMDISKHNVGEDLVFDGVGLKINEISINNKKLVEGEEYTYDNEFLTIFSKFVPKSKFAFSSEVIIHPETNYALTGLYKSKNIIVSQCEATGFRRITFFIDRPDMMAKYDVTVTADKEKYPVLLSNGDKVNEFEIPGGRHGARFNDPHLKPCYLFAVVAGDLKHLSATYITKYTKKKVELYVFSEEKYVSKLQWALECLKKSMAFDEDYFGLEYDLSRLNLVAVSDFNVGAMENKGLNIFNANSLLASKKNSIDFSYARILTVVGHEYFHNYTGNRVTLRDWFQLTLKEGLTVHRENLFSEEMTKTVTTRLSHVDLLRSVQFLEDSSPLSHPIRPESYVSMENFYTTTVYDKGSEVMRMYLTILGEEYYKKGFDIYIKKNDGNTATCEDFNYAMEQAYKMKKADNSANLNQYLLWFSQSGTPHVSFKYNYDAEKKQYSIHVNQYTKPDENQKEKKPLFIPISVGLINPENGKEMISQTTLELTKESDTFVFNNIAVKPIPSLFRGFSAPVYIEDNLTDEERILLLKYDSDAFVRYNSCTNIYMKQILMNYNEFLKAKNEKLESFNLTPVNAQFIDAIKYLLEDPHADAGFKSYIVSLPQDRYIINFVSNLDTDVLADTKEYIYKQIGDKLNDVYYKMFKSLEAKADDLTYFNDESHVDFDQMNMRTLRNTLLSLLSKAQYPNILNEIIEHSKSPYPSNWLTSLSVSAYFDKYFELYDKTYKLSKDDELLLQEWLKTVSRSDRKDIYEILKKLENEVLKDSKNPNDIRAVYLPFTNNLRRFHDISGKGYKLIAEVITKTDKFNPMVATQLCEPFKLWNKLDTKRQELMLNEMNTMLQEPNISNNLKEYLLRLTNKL

Prothrombin = Prothrombin (Homo sapiens, UniProt P00734); assay: Thrombin 1536 HTS Dose Response Confirmation. [Related pubchem assays: 1046 (Thrombin 1536 HTS; hits were confirmed in this assay)]; format: functional
Genome polyprotein = Genome polyprotein (dengue virus type 2, UniProt P29990); assay: flavivirus cap methylation enzyme inhibition – biochemical, confirmation dose response, primary screen (AID 588689); format: functional
[7] = off-target signal loss in HeLa-CEM21 co-culture – HeLa F-luc CTL cells, cherry-picked, counter-screen for HIV-1 Env fusion inhibitor project, dose response (AID 652040); format: functional, cell-based;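 also: potency for signal decrease marking cytotoxic or nonspecific inhibition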
[8] = HIV-1 AD8 envelope cell-cell fusion blockers – cherry-pick, dose response (AID 652062); format: functional, cell-based;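 also: luciferase signal from cell-cell fusion driven by HIV-1 clade B AD8 Env; potency is for inhibitors of fusion seen as a drop in luminescence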
[9] = target: T3, Rac GTPase-activating protein 1 (Homo sapiens, UniProt Q9H0H5); assay: blockers of MgcRacGAP-driven Rac1 GTP hydrolysis – biochemical, ADP Hunter fluorescence, primary and confirmatory, confirmation (AID 624330); format: functional
T3 sequence (Q9H0H5 whole entry): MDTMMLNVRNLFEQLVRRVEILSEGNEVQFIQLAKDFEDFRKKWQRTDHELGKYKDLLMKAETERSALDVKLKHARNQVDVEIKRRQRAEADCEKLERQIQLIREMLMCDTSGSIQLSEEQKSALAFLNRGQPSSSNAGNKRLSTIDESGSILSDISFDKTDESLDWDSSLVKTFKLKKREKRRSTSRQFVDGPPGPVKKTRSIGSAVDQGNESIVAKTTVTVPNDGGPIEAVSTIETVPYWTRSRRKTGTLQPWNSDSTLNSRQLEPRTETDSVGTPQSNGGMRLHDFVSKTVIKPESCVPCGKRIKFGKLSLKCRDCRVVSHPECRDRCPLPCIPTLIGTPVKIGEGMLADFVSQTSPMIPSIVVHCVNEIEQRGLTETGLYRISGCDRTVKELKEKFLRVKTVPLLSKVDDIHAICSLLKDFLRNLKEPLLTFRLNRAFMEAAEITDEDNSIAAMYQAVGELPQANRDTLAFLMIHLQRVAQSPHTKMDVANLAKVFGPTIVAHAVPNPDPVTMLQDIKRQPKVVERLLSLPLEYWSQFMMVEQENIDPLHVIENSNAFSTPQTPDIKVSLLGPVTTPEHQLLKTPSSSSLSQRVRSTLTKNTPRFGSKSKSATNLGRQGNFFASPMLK

T1 sequence (P98170 whole entry): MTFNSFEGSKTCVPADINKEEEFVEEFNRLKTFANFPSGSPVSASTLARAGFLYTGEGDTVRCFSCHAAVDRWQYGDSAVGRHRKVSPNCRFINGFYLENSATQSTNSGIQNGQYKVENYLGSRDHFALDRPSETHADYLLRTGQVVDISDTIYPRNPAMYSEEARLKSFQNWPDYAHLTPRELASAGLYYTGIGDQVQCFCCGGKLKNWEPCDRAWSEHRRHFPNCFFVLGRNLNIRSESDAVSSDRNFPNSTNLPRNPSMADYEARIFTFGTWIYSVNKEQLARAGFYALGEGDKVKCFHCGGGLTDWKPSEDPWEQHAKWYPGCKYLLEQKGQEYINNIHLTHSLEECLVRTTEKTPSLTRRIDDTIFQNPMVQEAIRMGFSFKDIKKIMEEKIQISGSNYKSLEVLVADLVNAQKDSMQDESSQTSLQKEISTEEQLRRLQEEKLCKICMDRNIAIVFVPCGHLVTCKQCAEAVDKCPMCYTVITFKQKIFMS

COc1ccc(S(=O)(=O)CCC(=O)NC2CCCCC2)cc1
IC50 [1]: > 100 µM (not active) | IC50 [2]: > 100 µM (inactive)

c1ccc2[nH]c(CSc3ncnc4c3oc3ccccc34)nc2c1
EC50 [3]: 9.02 µM (active) | EC50 [4]: > 79.4 µM (not active) | EC50 [5]: 5.6 µM (active) | IC50 [6]: > 93.1 µM (not active)

Cc1c2cnccc2c(C)c2c1c1ccccc1n2CCOC(=O)c1ccccc1
AC50 (Cytochrome P450 2C19): 0.794 µM (inconclusive) | GI50 (P388/ADR): 9.23 µM (inactive) | GI50 (P388): 4.95 µM (inactive) | GI50 (SN12K1): 10.3 µM (inactive)

COc1cccc(C2CC(c3c(O)nc4ccc(Cl)cc4c3-c3ccccc3)=NN2S(C)(=O)=O)c1OC (stereo unspecified)
IC50 (Aminopeptidase N): 78.2 µM (active)

CCCOc1cccc(C(=O)N(Cc2ccco2)C2CCS(=O)(=O)C2)c1 (stereo unspecified)
IC50 (Prothrombin): > 50 µM (not active)

O=C(O)c1cccc2c1C(=O)c1ccc(-c3ccc(F)cc3OCc3ccccc3)cc1S2(=O)=O
IC50 (Genome polyprotein): 50.5 µM (active)

CC(C)NC(=O)c1ccc(C(C)C)cc1
IC50 (Prothrombin): > 50 µM (not active)

Cn1c(SCc2nc(-c3ccc(Cl)cc3)no2)nnc1-c1cccs1
AC50 [7]: 3.1 µM (active) | AC50 [8]: 9.06 µM (active)

CCOC(=O)c1c(C)nsc1S
EC50 [3]: > 79.4 µM (inactive) | IC50 [9]: 56.6 µM (active) | EC50 [4]: > 79.4 µM (not active) | EC50 [5]: > 26.5 µM (not active) | IC50 [6]: 30.5 µM (not active)

CN(Cc1ccccc1)C(=O)CSc1cc(=O)n(C)c2ccccc12
EC50 [3]: > 79.4 µM (inactive) | EC50 [4]: > 79.4 µM (not active) | EC50 [5]: > 79.4 µM (not active)

CCCc1nc(SCC(=O)Nc2ccc(S(=O)(=O)N(C)C)cc2)c2ccccc2n1
IC50 [1]: > 100 µM (not active) | IC50 [2]: > 100 µM (inactive)

CC(=O)CSc1ncnc2c1oc1ccccc12
EC50 [3]: > 79.4 µM (inactive) | EC50 [4]: > 79.4 µM (not active) | EC50 [5]: > 26.5 µM (not active)

O=C(C1CC(c2ccc(F)cc2)=NO1)N1CCc2ccccc2C1 (stereo unspecified)
IC50 [1]: > 100 µM (not active) | IC50 [2]: > 100 µM (inactive)

CCCCOC(=O)CNc1nnc(S)nc1O
EC50 [3]: 5 µM (active) | EC50 [4]: 91.3 µM (not active) | EC50 [5]: 4.23 µM (active)

COC(=O)/C=C/C(=O)N1CCN(c2ccccc2)CC1
IC50 [1]: > 100 µM (not active) | IC50 [2]: > 100 µM (inactive)
